A short description of the data set: Photostability of BMDBM/OMC compositions in acetonitrile under UV irradiation, with and without APP analogue. The data set is classed as physicochemical. The note with it: no APP. On the procedure: Comparisons were performed to evaluate the abilities of APP derivatives of Formula I, Ia, Ib, Ic, Id, Ie, If, or combination thereof to photostabilize photoactive compounds. UV light exposure is often measured in MED rather than a measurement of time. MED relates to the minimal dosage of UV exposure required to result in redness 24 hours after exposure. Although technically an individualized measurement that would vary depending on the sensitivity of an individual's skin, MED measurements have been standardized with the advent of UV bulbs and lamps. FIG. 1 illustrates the photoinstability of a composition containing BMDBM and OMC. […] Absorption was measured for wavelengths 250 nm to 500 nm in length. BMDBM absorbs wavelengths around 375 nm in length, which can be seen as a distinct peak on the line illustrating the composition which was not irradiated with UV light. […] FIG. 2 illustrates the photostabilization of a photoactive composition by the addition of an APP analogue of Formula I. […] The APP analogue was a 1:1 blend of Formula Ia and Formula Ib. […] FIG. 3 illustrates the percentage of BMDBM remaining in compositions after irradiation with 15 MED of UV light. […] The APP analogue was a 1:1 blend of Formula Ia and Formula Ib.

For the molecule `COc1ccc(C(=O)CC(=O)c2ccc(C(C)(C)C)cc2)cc1` [BMDBM, 4-tert-butyl-4-methoxy-dibenzoylmethane], the “BMDBM absorption peak at 375 nm after UV irradiation” value (acetonitrile solution, 10 ppm BMDBM and 10 ppm OMC, 15 MED versus 0 MED, FIG. 1) was “substantially diminished”. For the same molecule, the “percentage of BMDBM remaining capable of absorbing light at 375 nm after irradiation” value (composition of 10 ppm BMDBM and 10 ppm OMC, 15 MED of UV light, FIG. 3) came out at 2.9%.

For the origin of these results see patent US20160256371A1, “PHOTOSTABLE COMPOSITIONS COMPRISING PARA-ALKOXYL PHENYL SUBSTITUTED PROPENOIC ACID (APP) DERIVATIVES” (HALLSTAR INNOVATIONS CORP., priority 2015, published 2016).
